# From patent US8278282B2, “Nucleoside analogs for treatment of viral infections” (Novartis AG, priority 2007, dated 2012)
# Legend:
# dengue virus serotype 2 = assay: microbe, parasite or virus in culture; type: cell-based
# dengue virus serotype 4 = assay: microbe, parasite or virus in culture; type: cell-based
# HCV replicon = assay: Cell-based HCV replicon assay; settings: Hepatitis C virus
# yellow fever virus = assay: microbe, parasite or virus in culture; type: cell-based
# [1] = system: Japanese encephalitis virus; assay: microbe, parasite or virus in culture; type: cell-based
# dengue virus serotype 1 = assay: microbe, parasite or virus in culture; type: cell-based
# West Nile virus = assay: microbe, parasite or virus in culture; type: cell-based
# TSV01 dengue virus 2 = assay: Mouse model of dengue infection (viremia by plaque assay); settings: 25 mg/kg bid, compared to the control group
compound,measurement,setting,value
"C#C[C@@]1(O)[C@H](O)[C@@H](CO)O[C@H]1n1cc(F)c2c(N)ncnc21 [Example 4, (2R,3R,4R,5R)-2-(4-Amino-5-fluoro-pyrrolo[2,3-d]pyrimidin-7-yl)-3-ethynyl-5-hydroxymethyl-tetrahydrofuran-3,4-diol]",EC50,dengue virus serotype 2,~400 nM
"C#Cc1cn([C@@H]2O[C@H](CO)[C@@H](O)[C@]2(O)C#C)c2ncnc(N)c12 [Example 8, (2R,3R,4R,5R)-2-(4-Amino-5-ethynyl-pyrrolo[2,3-d]pyrimidin-7-yl)-3-ethynyl-5-hydroxymethyl-tetrahydro-furan-3,4-diol]",EC50,dengue virus serotype 2,~600 nM
"C#C[C@@]1(O)[C@H](O)[C@@H](CO)O[C@H]1n1ccc2c(N)ncnc21 [Example 1, (2R,3R,4R,5R)-2-(4-Amino-pyrrolo[2,3-d]pyrimidin-7-yl)-3-ethynyl-5-hydroxymethyl-tetrahydrofuran-3,4-diol]",EC50,dengue virus serotype 4,~200 nM
same,EC50,HCV replicon,~100 nM
same,EC50,yellow fever virus,~900 nM
same,EC50,[1],~1300 nM
same,EC50,dengue virus serotype 1,~200 nM
same,EC50,West Nile virus,~3750 nM
same,reduction in viremia,TSV01 dengue virus 2,about 20 fold
